# Measurements published in patent US20070219266A1, “N-Acylated-3-(Benzoyl)-Pyrrolidines as 11-Beta-HSD1 Inhibitors Useful for the Treatment of Metabolic Disorders” (priority 2003, published 2007).
# Molecular target: T1, human 11βHSD1 (Homo sapiens, UniProt P28845)
# T1 construct: stably transfected with a construct containing full-length human 11βHSD1 enzyme (in pCMVHyg); expressed in transfected cells
# Test: HeLa GRE4-βGal/11βHSD1 cell reporter assay (cortisone to cortisol conversion, β-galactosidase readout)
# Format: cell-based
# Details: HeLa GRE4-βGal/11βHSD1 cells, cortisone 1 μM, overnight incubation, absorbance at 570 nm
# From the text: HeLa cells (human cervical carcinoma derived cells) were stably transfected with a construct containing four copies of the glucocorticoid response element (GRE) linked to a beta-galactosidase reporter gene (3 kb lac Z gene derived from pSV-B-galactosidase). These cells were then further stably transfected with a construct containing full-length human 11βHSD1 enzyme (in pCMVHyg) to create GRE4-βGal/11βHSD1 cells. The principal of the assay is as follows. Cortisone is freely taken up by the cells and is converted to cortisol by 11βHSD1 oxo-reductase activity and cortisol (but not cortisone) binds to and activates the glucocorticoid receptor. Activated glucocorticoid receptor then binds to the GRE and initiates transcription and translation of β-galactosidase. Enzyme activity can then be assayed with high sensitivity by colourimetric assay.
# Cells were routinely cultured in DMEM (Invitrogen, Paisley, Renfrewshire, UK) containing 10% foetal calf serum (LabTech), 1% glutamine (Invitrogen), 1% penicillin & streptomycin (Invitrogen), 0.5 mg/ml G418 (Invitrogen) & 0.5 mg/ml hygromycin (Boehringer). Assay media was phenol red free-DMEM containing 1% glutamine, 1% penicillin & streptomycin.
# Compounds (1 mM) to be tested were dissolved in dimethyl sulphoxide (DMSO) and serially diluted into assay media containing […]. […]
# A cocktail (25 μl) consisting of 10× Z-buffer (600 mM Na2HPO4, 400 mM NaH2PO4.2H2O, 100 mM KCl, 10 mM MgSO4.7H2O, 500 mM β-mercaptoethanol, pH 7.0), SDS (0.2%), chlorophenol red-β-D-galactopyranoside (5 mM, Roche Diagnostics) was added per well and plates incubated at 37° C. for 3-4 hours. β-Galactosidase activity was indicated by a yellow to red colour change (absorbance at 570 nm) measured using a Tecan Spectrafluor Ultra.
# The calculation of median inhibitory concentration (IC50) values for the inhibitors was performed using Origin 6.0 (Microcal Software, Northampton Mass. USA). Dose response curves for each inhibitor were plotted as OD units at each inhibitor concentration with relation to a maximum signal (cortisone, no compound) and IC50 values calculated. […]
# T1 sequence (P28845 whole entry): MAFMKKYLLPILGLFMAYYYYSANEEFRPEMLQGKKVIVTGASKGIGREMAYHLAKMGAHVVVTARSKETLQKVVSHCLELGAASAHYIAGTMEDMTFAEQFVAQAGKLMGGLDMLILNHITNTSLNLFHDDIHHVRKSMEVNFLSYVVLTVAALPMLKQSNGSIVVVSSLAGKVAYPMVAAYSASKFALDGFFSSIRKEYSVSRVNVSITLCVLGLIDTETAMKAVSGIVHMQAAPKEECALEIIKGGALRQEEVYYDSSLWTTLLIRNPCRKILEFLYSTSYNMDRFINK
row,SMILES,IC50 [nM]
1,O=C(c1ccc(F)cc1)C1CCN(C(=O)c2ccc(Cl)cc2)C1 (stereo not drawn) [Example 5],75
2,O=C(c1ccc(F)cc1)C1CCN(C(=O)c2ccccc2Cl)C1 (stereo not drawn) [Example 7],70
3,O=C(c1ccc(F)cc1)C1CCN(S(=O)(=O)c2ccc(F)cc2)C1 (stereo not drawn) [Example 18],447
